Results on one molecule are retold here after patent US8598122B2, “Antagonistic peptides for frizzled-1 and frizzled-2” (Universiteit Maastricht, priority 2009, dated 2013).

Entries after “also recorded” stand apart in the source; their conditions may differ. Where a SMILES comes first, the peptide text is derived from it.

One series addresses T1, frizzled-1 (rFzd-1) (Rattus norvegicus, UniProt Q08463).
T1 construct: expressed in transfected cells; host or cells: HEK293 superTOPflash (human embryonic kidney), transient, pcDNA3.1/hygro
In words: Activity assay: Wnt3a-induced luciferase (superTOPflash) in HEK cells transfected with frizzled-1. Type of series: cell-based. The note with it: peptide 1.10^−8 M. As to the method:
(§1) Human embryonic kidney (HEK) cells were used for screening. These cells have a luciferase construct stably transfected into the genome (see FIG. 2A), such that when the frizzled receptor is activated and β-catenin is increased, the luciferase is activated by transcription and light can be measured.
The peptides were tested by transfecting the frizzled-1 or the frizzled-2 receptor and addition of UM206(S-S) to the cell culture. For testing antagonistic activity, UM206 was added and the natural ligand Wnt3a was added, which is a natural stimulus for the canonical pathway.
Day 2: Transfection 12-well plates • heat Fugene6 and DNA 15 minutes at RT • 2 ml serum-free medium in tube • add 3μl fugene • add 2 μg DNA • incubate 30 minutes at RT • wash with PBS • add 50 μtransfectiemix • add 1 ml antibiotica-free medium
Day 3: Add conditioned medium or UM206
Day 4: Luciferase activity measurements • remove medium • wash with PBS • add 500 μl ⅕ lysisbuffer • shake for 60 minutes • centrifuge in tube • 20 μl lysaat and 50 μl luciferase in new tube for measurement • vortex • measure
To determine the inhibitory constant of UM206-8, HEK293-superTOPflash cells were transfected with either rFzd-1 or -2 and incubated with Wnt3a (10^−9M) in the presence of increasing concentrations of either of the peptides (FIG. 15). For UM206, a biphasic inhibition curve was observed that was best fitted with a two-binding-state model.
The cell lines were cultured in 75 cm^2 culture flasks (Corning, Schiphol, the Netherlands) in Dulbeco's modified essential medium with L-glutamine (2 mM), 10% fetal calf serum (Invitrogen, Merelbeke, Belgium), and 1% gentamycin (Sigma-Aldrich, Zwijndrecht, The Netherlands). Before starting the experiment, the cell lines were treated with plasmocin 25 μg/ml (Invivogen, Toulose, France) and tested with a mycoalert mycoplasma detection kit (Lonza, Rockland Me., USA). Cells were transiently transfected with Fugene6 (Roche, Indianapolis Ind., USA) with plasmid DNA, pcDNA3.1/hygro (Invitrogen) with frizzled-1/2/4 or Wnts 3a-5a or with pcDNA3.0 (Invitrogen) containing the β-catenin or frizzled-5 sequence. After transfection, the cells were cultured for 24 hours in conditioned medium, collected from the cultured L-cells, L-cells with Wnt3a or 5a (Invitrogen). At the same moment the antagonist was added.

Another series concerns the target T2, human Fzd-1 (Homo sapiens, UniProt Q9UP38).
T2 construct: expressed in transfected cells
In words: Antagonism of Wnt3a activation of human Fzd-1 (data not shown). Type of series: cell-based. An excerpt:
(§2) In FIG. 3, Panel E, the efficacy of UM206 to block the Wnt3a-induced activation of luciferase activity in HEK293 superTOPflash cells transfected with different Fzds is shown.

The target of the next series is T3, human Fzd-2 (Homo sapiens, UniProt Q14332).
T3 construct: expressed in transfected cells
In words: Antagonism of Wnt3a activation of human Fzd-2 (data not shown). Type of series: cell-based.
Excerpt: as §2

Series [1] concerns Wnt/Fzd signal transduction cascade. In words: Luciferase activity in HEK293-superTOPflash cells (Wnt/Fzd signal transduction cascade). Type of series: cell-based, human. Particulars: without Wnt3a.
Excerpt: as §1
Three areas of high homology that contained two cysteines are underlined (UM207), (UM208) and (UM206). In FIGS. 9B through 9D, the inhibitory effect of these three peptides on Wnt3a-induced luciferase activity in HEK293-superTOPflash is shown. […] Again, the peptides by themselves had no effect on the luciferase activity.

Series [2] relates to C-FIT cells (cardiac fibroblasts immortalized with telomerase). In words: Migration (wound/scratch) assay with C-FIT cells overexpressing Fzd-1 or -2. Type of series: cell-based, rat. As to the method: For this assay, we used rat cardiac fibroblasts, which were immortalized with telomerase, the C-FIT cell line. This cell line was characterized previously and resembles features of primary cardiac fibroblasts. C-FIT cells were plated, treated when they were 70% confluent and a wound was made with a pipette tip at the moment of 100% confluence.
This assay was first tested with the natural ligand Wnt3a, in combination with frizzled-1 and -2 overexpression. […] Next step was to see whether the antagonist could counteract this. (See FIG. 4.)
Day 1: • Plate cells in 12-well plates
Day 2: • Transfection (see protocol)
Day 3: • Addition of conditioned medium
Day 4: • Make a scratch. This is time point zero.
Making pictures every six hours and analyzing the scratch width.
Cells were plated on day 0, and cultured until 70% confluence before transfection or treatment. Migration assays started 48 hours after transfection and/or treatment. The time point where the scratch was made, is indicated as 0 hours. Scratch width was measured at this time point, and also after 6, 12, and 24 hours.

The subject of another series is small intestine. In words: qPCR of Wnt target genes in small intestine after long-term UM206 administration. Type of series: in vivo, mice. Details: key to Rel. exp. Col I: expression normalized to cyclophilin housekeeping gene; key to Rel. exp. Inos / Rel. exp. CD 44 / Rel. exp. Axin 2 / Rel. exp. Itm 2A / Rel. exp. Mmp 2 / Rel. exp. Ascl 2 / Rel. exp. Dvl 2: relative expression, cyclophilin as housekeeping gene. An excerpt: This was confirmed by histological analysis of the infarct area.
RNA was isolated using the Trizol method (Invitrogen). For the RT-PCR, the RNA was transcribed to cDNA with iscript™ cDNA synthesis kit (Bio-Rad, Hercules Calif., USA), Syber green (Eurogentec, Ghent, Belgium) was used for the detection of cDNA levels and cyclophilin served as the house keeping gene. In Supplementary methods panel 5, the primer sequences are shown.
(Quantitative PCR measures a nucleic acid by following its amplification.)

For series [3] the following is noted: mouse, in vivo.
Method: (§3) UM206 was injected into the femoral artery of Swiss mice (concentration of 10^−9 M). Blood was sampled at different time points in the femoral vein. On the y-axis, the concentration of UM206 in the plasma is shown. This is determined with HPLC and the area under the peak is calculated and shown on the y-axis. All values were corrected for the baseline value.
(§4) In order to determine the pharmacokinetic properties of UM206, we injected 15 ng of the compound into the tail vein of mice and monitored the concentration in the blood at different time points.
(§5) Male Swiss mice were used (10-12 weeks of age, Charles River, Maastricht, The Netherlands).
(§6) Blood samples were collected from the animals for the pharmacokinetics and after 14 to 35 days treatment, to determine the concentration of UM206. Blood was centrifuged and the plasma was treated with 1% TFA.
Series [4] can be described thus: Pharmacokinetics assay in mice.
Method: as §3, §4, §5, §6

In general, half-life refers to the time needed for the level to fall by half in the phase considered.

T1 sequence (Q08463 69-641): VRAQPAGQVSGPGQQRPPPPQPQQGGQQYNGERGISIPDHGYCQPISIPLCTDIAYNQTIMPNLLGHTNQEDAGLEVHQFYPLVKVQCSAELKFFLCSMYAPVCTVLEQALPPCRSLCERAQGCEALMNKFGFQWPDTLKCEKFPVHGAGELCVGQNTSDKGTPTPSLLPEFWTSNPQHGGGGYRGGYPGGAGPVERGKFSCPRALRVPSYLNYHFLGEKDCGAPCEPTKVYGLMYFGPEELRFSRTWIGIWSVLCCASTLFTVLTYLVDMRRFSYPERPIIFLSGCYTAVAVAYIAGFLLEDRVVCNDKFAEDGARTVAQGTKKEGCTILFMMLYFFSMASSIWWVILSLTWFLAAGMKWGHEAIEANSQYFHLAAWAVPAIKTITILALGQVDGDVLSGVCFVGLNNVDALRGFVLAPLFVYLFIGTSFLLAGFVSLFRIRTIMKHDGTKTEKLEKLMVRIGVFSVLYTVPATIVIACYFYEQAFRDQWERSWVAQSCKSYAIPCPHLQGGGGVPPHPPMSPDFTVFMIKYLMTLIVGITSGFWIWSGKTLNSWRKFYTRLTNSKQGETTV
T3 sequence (Q14332 24-565): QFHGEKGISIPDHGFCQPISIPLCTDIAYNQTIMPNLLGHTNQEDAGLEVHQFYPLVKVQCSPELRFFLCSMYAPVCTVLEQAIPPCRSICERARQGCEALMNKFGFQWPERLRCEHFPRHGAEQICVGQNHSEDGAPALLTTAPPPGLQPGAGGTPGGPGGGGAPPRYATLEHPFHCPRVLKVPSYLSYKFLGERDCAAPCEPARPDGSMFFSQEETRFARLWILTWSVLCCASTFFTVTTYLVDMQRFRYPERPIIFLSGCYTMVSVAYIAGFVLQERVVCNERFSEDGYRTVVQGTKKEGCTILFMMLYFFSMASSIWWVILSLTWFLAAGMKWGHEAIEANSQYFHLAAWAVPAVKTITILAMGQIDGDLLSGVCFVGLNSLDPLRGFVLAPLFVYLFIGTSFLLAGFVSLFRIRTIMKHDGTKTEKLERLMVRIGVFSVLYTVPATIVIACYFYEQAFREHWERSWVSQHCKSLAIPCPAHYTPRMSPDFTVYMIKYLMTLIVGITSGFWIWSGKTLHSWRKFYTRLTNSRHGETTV
T2 sequence (Q9UP38 70-647): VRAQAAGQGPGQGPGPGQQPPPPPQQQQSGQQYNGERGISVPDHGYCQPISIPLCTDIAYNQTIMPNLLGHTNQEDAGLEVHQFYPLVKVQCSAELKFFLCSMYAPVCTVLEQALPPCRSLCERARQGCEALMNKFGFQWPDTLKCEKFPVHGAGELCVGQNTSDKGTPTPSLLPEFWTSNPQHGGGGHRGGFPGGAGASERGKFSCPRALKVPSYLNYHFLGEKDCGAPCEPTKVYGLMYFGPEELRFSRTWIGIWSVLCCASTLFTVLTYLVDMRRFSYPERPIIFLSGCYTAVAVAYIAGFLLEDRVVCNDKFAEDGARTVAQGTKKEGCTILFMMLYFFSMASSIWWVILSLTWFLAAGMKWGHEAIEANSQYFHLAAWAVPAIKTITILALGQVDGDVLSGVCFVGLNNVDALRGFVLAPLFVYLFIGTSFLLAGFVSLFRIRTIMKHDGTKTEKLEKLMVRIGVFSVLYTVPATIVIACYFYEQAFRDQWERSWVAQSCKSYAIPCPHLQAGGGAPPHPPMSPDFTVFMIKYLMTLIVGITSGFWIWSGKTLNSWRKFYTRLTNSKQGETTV

As for `CSCC[C@H](NC(=O)CNC(=O)[C@H](CCC(=O)O)NC(=O)[C@H](CO)NC(=O)[C@@H](NC(=O)[C@H](CCCCN)NC(=O)[C@H](CC(N)=O)NC(=O)[C@H](CS)NC(C)=O)[C@@H](C)O)C(=O)N[C@@H](CC(=O)O)C(=O)NCC(=O)N[C@@H](CS)C(=O)N[C@@H](CCC(=O)O)C(=O)N[C@@H](CC(C)C)C(N)=O` [UM206, Ac-Cys-Asn-Lys-Thr-Ser-Glu-Gly-Met-Asp-Gly-Cys-Glu-Leu-NH2] (Ac-CNKTSEGMDGCEL-NH2), the “Blocking of Wnt3a-induced luciferase activity, rFzd-1” value on frizzled-1 (rFzd-1) is listed as “blocked almost completely; also recorded: abolished the induction of luciferase activity almost completely”. For the same molecule, at human Fzd-1, the “Antagonizing activation of human Fzd-1 by Wnt3a” value is “fully effective”. Besides, the “Antagonizing activation of human Fzd-2 by Wnt3a” value on human Fzd-2 is given as “fully effective”. The “Luciferase activity induced by the peptide by itself” value in series [1] is given as “none of the three peptides by itself could induce an increase in luciferase activity”. In series [2], the “effect of UM206 alone on cell migration” value was “no effect”. Also, in series [2] (UM206 1.10^−8 M, Fzd-1 or -2 overexpression), the “Counteraction of Wnt3a/Wnt5a-induced attenuation of migration” value is “migration was reset to the migration speed of the control; also recorded: blocked completely; also recorded: block this effect completely”. Further, the “influence on the expression patterns in the small intestine” value in the series on small intestine (UM206 for five weeks) is “These data indicate that UM206 had no influence on the expression patterns in the small intestine”. For the same molecule, in the series on small intestine (small intestine), the “Rel. exp. Ascl 2” value is reported as 1.42, the “Rel. exp. Axin 2” value stood at 1.05, the “Rel. exp. CD 44” value is 1.22 and the “Rel. exp. Col I” value stood at 1.32. Further, in the series with small intestine (small intestine), the “Rel. exp. Dvl 2” value stood at 1.13, the “Rel. exp. Inos” value amounted to 1.18, the “Rel. exp. Itm 2A” value turned out to be 0.97 and the “Rel. exp. Mmp 2” value came out at 1.32. Moreover, the “time until steady state is reached” value in series [3] was ~10 h. The half-life in series [4] (15 ng into the tail vein of mice, HPLC, n=24) stood at 1.39 h. The half-life in series [4] (male, Swiss, mouse, plasma) was ~1.5 h. This molecule registered a half-life in series [4] (male, Swiss, mouse, plasma, intravenous, 15 ng) of 1.39 ± 0.0272 h.
